# Test results reported in US20070111990A1, “3-Aza-1-oxa-dibenzo[e,h]azulenes for the treatment of central nervous system diseases and disorders” (GLAXOSMITHKLINE ISTRAZIVACKI CENTAR ZAGREB D.O.O., priority 2003, published 2007).
# Columns and labels:
# 5-HT2C receptor = target: T1, 5-HT2C receptor (Homo sapiens, UniProt P28335); test: radioligand binding assay for 5-HT2C receptor ([3H]-mesulergine); conditions: competitive binding; for IC50: choroid plexus or recombinant 5-HT2C in CHO-K1, read-out: binding affinity to 5-HT2C serotonin receptor expressed as IC50 value; for Ki: choroid plexus or recombinant 5-HT2C in CHO-K1, read-out: binding affinity to 5-HT2C serotonin receptor, Ki value
# T1 construct: expressed in transfected cells; host or cells: CHO-K1 cells (alternatively choroid plexus tissue)
# T1 sequence (P28335 33-458): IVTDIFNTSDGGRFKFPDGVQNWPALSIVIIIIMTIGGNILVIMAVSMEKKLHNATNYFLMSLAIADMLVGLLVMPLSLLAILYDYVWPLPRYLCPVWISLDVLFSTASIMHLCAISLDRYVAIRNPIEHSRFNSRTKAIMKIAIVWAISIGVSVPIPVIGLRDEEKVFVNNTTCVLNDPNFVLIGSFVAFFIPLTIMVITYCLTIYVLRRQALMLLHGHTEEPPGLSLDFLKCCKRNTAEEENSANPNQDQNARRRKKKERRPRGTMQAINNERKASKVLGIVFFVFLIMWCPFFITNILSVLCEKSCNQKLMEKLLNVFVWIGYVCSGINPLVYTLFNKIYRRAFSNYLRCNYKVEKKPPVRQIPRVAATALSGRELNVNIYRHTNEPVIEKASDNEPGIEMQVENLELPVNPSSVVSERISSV
# Experimental: (§1) The effect of the compounds of the present invention on the neurochemical steady state was determined by in vitro investigations such as a radionuclide-marked radioligand binding assay for 5-HT2A (Bonhaus D. W. Br. J. Pharmacol. 1995, 115:622; Saucier C. J. Neurochem. 1997, 68:1998) and 5-HT2C receptors (Wolf W. A. J. Neurochem. 1997, 69:1449), in vitro binding assay for σ1 receptor (Thomson W. and Donn R. Arthritis Res. 2002, 4: 302-306) and by in vivo investigations in a tail suspension test (Vogel H. G. and Vogel W. H. Drug Discovery and Evaluation Pharmacological Assays, Springer 1997, 304), in amphethamine-induced hyperlocomotion in mice (Millan M. J. et al, 1998 J Pharmacol. Exp. Ther. 287: 167-186), in a forced swim test in mice (Porsolt R. D. et al. Arch. Int. Pharmacodyn. 1977, 229:327-336), in meta-chlorophenyl piperazine (m-CPP) test on rats (Drug Dev. Res. 1989, 18:119-144), and in apomorphine, tryptamine, norepinephrine (ATN) test in rats (Arch. Int. Pharmacodyn. 1977, 227:238-253).
# (§2) In Vitro Method for Determining Affinity for Binding to 5-HT2A and 5-HT2C Receptors
# (§3) A small concentration of a radioligand having a great affinity for binding to a receptor was incubated with a tissue sample enriched with a certain receptor (1-5 mg of tissue) in a buffered medium (0.2-5 mL). Recombinant human HT2A and HT2C receptors were expressed in CHO-K1 or COS-7 cells and were also used for competitive binding. During incubation the radioligand bound to the receptor. When a binding balance was achieved, the receptors to which the radioligand was bound were separated from those to which said ligand was not bound, and the radioactivity of the receptor/radioligand complex was measured. The interaction of the tested compounds with receptors was tested in competitive binding experiments. Various concentrations of tested compounds were added to the incubation mixture containing a prepared tissue enriched with corresponding receptors and the radioligand. The radioligand binding was inhibited by the test compounds proportionally to the affinity of a certain compound for the receptor and to the concentration of the compound.
# The radioligand used for the determination of binding to 5-HT2C receptor was [^3H]-mesulergine and the tissue used was choroid plexus or recombinant 5-HT2C receptor expressed in CHO—K1 cells.
# 5-HT2A receptor = target: T2, 5-HT2A receptor (Homo sapiens, UniProt P28223); test: radioligand binding assay for 5-HT2A receptor ([3H]-ketanserin); conditions: competitive binding; for IC50: human cortex or recombinant 5-HT2A in CHO-K1, read-out: binding affinity to 5-HT2A serotonin receptor expressed as IC50 value; for Ki: human cortex or recombinant 5-HT2A in CHO-K1, read-out: binding affinity to 5-HT2A serotonin receptor, Ki value
# T2 construct: expressed in transfected cells; host or cells: CHO-K1 (alternatively human cortex tissue)
# Experimental: as §1, §2, §3
# The radioligand used for the determination of binding to ^5-HT2A receptor was [^3H]-ketanserin and the tissue used was human cortex or recombinant 5-HT2A receptor expressed in CHO—K1.
# T2 sequence (P28223 whole entry): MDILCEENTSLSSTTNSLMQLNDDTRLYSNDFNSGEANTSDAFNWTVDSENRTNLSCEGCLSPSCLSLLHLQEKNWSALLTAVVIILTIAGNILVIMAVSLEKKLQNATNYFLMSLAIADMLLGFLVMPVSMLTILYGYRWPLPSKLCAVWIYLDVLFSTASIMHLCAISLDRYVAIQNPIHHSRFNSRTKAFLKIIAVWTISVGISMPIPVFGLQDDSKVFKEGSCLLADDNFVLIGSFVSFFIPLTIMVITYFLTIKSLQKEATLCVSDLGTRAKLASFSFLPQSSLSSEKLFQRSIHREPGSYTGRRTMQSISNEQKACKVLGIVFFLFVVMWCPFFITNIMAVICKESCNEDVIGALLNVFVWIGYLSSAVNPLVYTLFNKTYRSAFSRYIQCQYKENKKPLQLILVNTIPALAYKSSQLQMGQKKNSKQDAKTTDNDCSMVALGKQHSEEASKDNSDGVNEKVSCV
Compound,IC50 (5-HT2C receptor) [nM],Ki (5-HT2C receptor) [nM],IC50 (5-HT2A receptor) [nM],Ki (5-HT2A receptor) [nM]
"Cc1nc2c(o1)-c1ccccc1Oc1ccc(Cl)cc1-2 [5-chloro-2-methyl-1,8-dioxa-3-aza-dibenzo[e,h]azulene]",< 200,< 100,< 200,< 100
"CN(C)CCOCc1nc2c(o1)-c1ccccc1Sc1ccc(Cl)cc1-2 [[2-(5-chloro-1-oxa-8-thia-3-aza-dibenzo[e,h]azulen-2-ylmethoxy)-ethyl]-dimethyl-amine]",< 200,< 100,< 200,< 100
"CN(C)CCOCc1nc2c(o1)-c1cc(Cl)ccc1Sc1ccccc1-2 [[2-(11-chloro-1-oxa-8-thia-3-aza-dibenzo[e,h]azulen-2-ylmethoxy)-ethyl]-dimethyl-amine]",< 200,< 100,< 200,< 100

# Continued, values first:
IC50 (5-HT2C receptor) [nM],Ki (5-HT2C receptor) [nM],IC50 (5-HT2A receptor) [nM],Ki (5-HT2A receptor) [nM],Compound
< 200,< 100,< 200,< 100,"c1ccc2c(c1)Sc1ccccc1-c1ocnc1-2 [1-oxa-8-thia-3-aza-dibenzo[e,h]azulene]"
< 200,< 100,< 200,< 100,"CN(C)CCOCc1nc2c(o1)-c1ccccc1Sc1ccccc1-2 [dimethyl-[2-(1-oxa-8-thia-3-aza-dibenzo[e,h]azulen-2-ylmethoxy)-ethyl]-amine]"
